# Results published in US11236122B2, “Triterpene amine derivatives” (DFH THERAPEUTICS, priority 2018, dated 2022).
# pIC50: −log10 of the molar value.
# Columns and labels:
# [1] = tested on: pNL4-3 SP1-V7A; test: CA-SP1 accumulation assay, SP1-V7A derivative; type: cell-based, HIV-1; conditions: 10 nM compound, HeLa or 293T cells
# Description: (§1) Cell culture, plasmids and transfections. The MT-4 T-cell line was maintained in RPMI-1640 medium supplemented with 10% (vol/vol) fetal bovine serum (FBS), 2 mM glutamine, 100 U/mL penicillin and 100 μg/mL streptomycin at 37° C. in a humidified 5% CO2 atmosphere. HeLa and 293T cells were maintained in Dulbecco's modified Eagle's medium (DMEM) supplemented with 5% (vol/vol) FBS, 2 mM glutamine, 100 U/mL penicillin and 100 μg/mL streptomycin. Molecular clones used in this study were WT pNL4-3 and the derivative encoding a Val-to-Ala mutation at SP1 residue 7, referred to as SP1-V7A. The MT-4 T-cell line was transfected the DEAE/dextran procedure; HeLa and 293T cells were transfected with linear polyethylenimine (L-PEI) or Lipofectamine 2000 (Invitrogen) as recommended by the supplier.
# (§2) CA-SP1 accumulation assay. For CA-SP1 accumulation assays, HeLa or 293T cells were transfected with WT pNL4-3 or the SP1-V7A derivative. At 24 h post-transfection, cells were starved in Met/Cys-free medium for 30 min and metabolically labeled with [^35S]Met/Cys-Pro-mix (Amersham) for 2-3 h. Maturation inhibitors were maintained in the cultures throughout the transfection and labeling period. Viruses were collected by ultracentrifugation at 99,000×g for 45-60 min. Virus pellets were resuspended in Triton X-100 lysis buffer [300 mM NaCl, 50 mM Tris-HCl (pH 7.5), 0.5% Triton X-100, 10 mM iodoacetamide, and protease inhibitor cocktail tablets (Roche)]. CA and CA-SP1 proteins were separated on 13.5-15% polyacrylamide gels by SDS-polyacrylamide gel electrophoresis, exposed to a phosphorimager plate (Fuji) and quantified by Quantity One software (Bio-Rad).
# [2] = tested on: human PBMCs; test: in vitro; type: cell-based; conditions: 7 days
# Description: (§3) Human PBMC Preparation. Fresh human PBMCs were isolated from screened donors, seronegative for HIV and HBV (Biological Specialty Corporation, Colmar, Pa.). Cells were pelleted/washed 2-3 times by low speed centrifugation and resuspension in Dulbecco's phosphate buffered saline (PBS) to remove contaminating platelets. The leukophoresed blood was then diluted 1:1 with PBS and layered over 14 mL of Ficoll-Hypaque density gradient (Lymphocyte Separation Medium, Cell Grow #85-072-CL, density 1.078+/−0.002 g/mL) in a 50 mL centrifuge tube and then centrifuged for 30 min at 600×g. Banded PBMCs were gently aspirated from the resulting interface and subsequently washed twice with PBS by low speed centrifugation. After the final wash, cells were enumerated by trypan blue exclusion and re-suspended at 1×10^6 cells/mL in RPMI 1640 supplemented with 15% Fetal Bovine Serum (FBS), 2 mM L-glutamine, 100 U/mL penicillin, […] streptomycin, and 4 μg/mL Phytohemagglutinin (PHA; Sigma, St. Louis, Mo.; cat #L1668). The cells were allowed to incubate for 48-72 h at 37° C. After incubation, PBMCs were centrifuged and resuspended in RPMI 1640 with 15% FBS, L-glutamine, penicillin, streptomycin, non-essential amino acids (MEM/NEAA; Hyclone; cat #SH30238.01), and 20 U/mL recombinant human IL-2 (R&D Systems Inc., Minneapolis, Minn.; cat #202IL). PBMCs were maintained in this medium at a concentration of 1-2×10^6 cells/mL, with twice-weekly medium changes until they were used in the assay protocol. Monocytes-derived-macrophages were depleted from the culture as the result of adherence to the tissue culture flask.
# (§4) PBMC Assay. For the standard PBMC assay, PHA stimulated cells from at least two normal donors were pooled (mixed together), diluted in fresh medium to a final concentration of 1×10^6 cells/mL, and plated in the interior wells of a 96 well round bottom microplate at 50 μL/well (5×10^4 cells/well) in a standard formate developed by the Infectious Disease Research Department of the SRI. Pooling (mixing) of mononuclear cells from more than one donor was used to minimize the variability observed between individual donors, which results from quantitative and qualitative differences in HIV infection and overall response to the PHA and IL-2 of primary lymphocyte populations. Each plate contains virus control wells (cells plus virus) and experimental wells (drug plus cells plus virus). Test drug dilutions were prepared at a 2× concentration in microtiter tubes and 100 μL of each concentration was placed in appropriate wells using the standard format. 50 μL of a predetermined dilution of virus stock was placed in each test well (final MOI≈0.1). Separate plates were prepared identically without virus for drug cytotoxicity studies using an MTS assay system (described below; cytotoxicity plates also include compound control wells containing drug plus media without cells to control for colored compounds that affect the MTS assay). The PBMC cultures were maintained for seven days following infection at 37° C., 5% CO2. After this period, cell-free supernatant samples were collected for analysis of reverse transcriptase activity, and compound cytotoxicity was measured by addition of MTS to the separate cytotoxicity plates for determination of cell viability. Wells were also examined microscopically and any abnormalities were noted.
# (§5) MTS Staining for PBMC Viability to Measure Cytotoxicity. At assay termination, the uninfected assay plates were stained with the soluble tetrazolium-based dye MTS (CellTiter 96 Reagent, Promega) to determine cell viability and quantify compound toxicity. MTS is metabolized by the mitochondria enzymes of metabolically active cells to yield a soluble formazan product, allowing the rapid quantitative analysis of cell viability and compound cytotoxicity. […] At termination of the assay, […] of MTS reagent was added per well and the microtiter plates were then incubated at 37° C., 5% CO2 to assess cell viability. […]
# [3] = in vitro; type: cell-based; conditions: human
# Description: as §3, §4, §5
# [4] = tested on: panel of HIV-1 isolates in human PBMCs; test: PBMC antiviral assay against a panel of HIV-1 isolates (RT activity); type: cell-based; conditions: Human immunodeficiency virus 1, PBMC
# Description: Antiviral assays. To produce HIV-1 stocks, 293T cells were transfected with WT pNL4-3 or the SP1-V7A derivative and culture supernatants were collected 24 h post transfection. RT-normalized virus supernatants were used to infect MT-4 cells at room temperature for 30 min. Cells were then cultured in the presence of serial dilutions of compounds. At 4 d post-infection, the culture supernatants were subjected to RT assay to monitor viral replication. The 50% inhibitory concentrations (IC50s) were defined as compound concentrations that reduced RT levels to 50% those measured in the absence of inhibitor (DMSO only controls) using GraphPad Prism 6 software. The IC50s in primary peripheral blood mononuclear cells (PBMCs) were calculated with a multi-clade panel of HIV-1 isolates by Southern Research Institute (Frederick, Md.). The PBMCs were stimulated with phytohemagglutinin (PHA) and IL-2 prior to use in the antiviral assays.
# Virus Isolates. Compound evaluation against a panel of HIV-1 isolates were performed by the Southern Research Institute (SRI). The viruses were chosen to include one isolate from each of the seven HIV-1 Group M envelope subtypes A, B, C, D, E, F, and G, as well as isolates from HIV-1 Groups O and N. In addition, various drug resistant HIV-1 isolates were included for evaluation. The HIV-1 isolates selected include CCR5-tropic and CXCR4-tropic isolates. Unless otherwise noted, all virus isolates were obtained from the NIH AIDS Research and Reference Reagent Program. Virus isolate 1022-48 was obtained from Dr. William A. Schief of Merck Research Laboratories. MDR769 and MDR807 were obtained from Dr. Thomas C. Merigan of Stanford University. A low passage stock of each virus was prepared using fresh human PBMCs and stored in liquid nitrogen. Pre-titered aliquots of each virus were removed from the freezer and thawed rapidly to rt in a biological safety cabinet immediately before use.
# as §3
# PBMC Assay. For the standard PBMC assay, PHA stimulated cells from at least two normal donors were pooled (mixed together), diluted in fresh medium to a final concentration of 1×10^6 cells/mL, and plated in the interior wells of a 96 well round bottom microplate at 50 μL/well (5×10^4 cells/well) in a standard formate developed by the Infectious Disease Research Department of the SRI. […]
# [5] = tested on: WT pNL4-3; test: CA-SP1 accumulation assay, WT NL4-3; type: cell-based, HIV-1; conditions: 10 nM compound, HeLa or 293T cells
# Description: as §1, §2
structure (smiles),measurement,setting,value
"C=C(C)[C@@H]1CC[C@]2(CCNCCN3CCN(Cc4cccc(Cl)c4)CC3)CC[C@]3(C)[C@H](CC[C@@H]4[C@@]5(C)CC[C@H](OC(=O)CC(C)(C)C(=O)O)C(C)(C)[C@@H]5CC[C@]43C)[C@@H]12 [Compound 51o, (3β)-17-[2-[[2-[4-(3-Chlorophenylmethyl)piperazin-1-yl]ethyl]amino]ethyl]-28-norlup-20(29)-en-3-ol, 3-(1-Hydrogen 2,2-Dimethylbutanedioate)]",% CA-SP1 Accumulation 10 nM SP1 V7A,[1],39.4 (3) %
same,CC50,[2],> 1000 nM
same,CC50 at 7 days,[3],> 1000 nM
same,pIC50,"[4]; isolate 92RW009, PBMC",7.22
same,pIC50,"[4]; isolate 92UG001, PBMC",8.09
same,pIC50,"[4]; isolate 93BR020, PBMC",7.88
same,pIC50,"[4]; isolate 93BR029, PBMC",7.83
same,pIC50,"[4]; isolate 93IN101, PBMC",7.61
same,pIC50,"[4]; isolate 99UGA07412MI, PBMC",7.48
same,pIC50,"[4]; isolate BCF02, PBMC",7.42
same,pIC50,"[4]; isolate CMU02, PBMC",7.60
same,pIC50,"[4]; isolate JV1083, PBMC",6.66
same,% CA-SP1 Accumulation 10 nM NL4-3,[5],55.7%
"C=C(C)[C@@H]1CC[C@]2(CCNCCN3CCN(Cc4ccc5ccccc5c4)CC3)CC[C@]3(C)[C@H](CC[C@@H]4[C@@]5(C)CC[C@H](OC(=O)CC(C)(C)C(=O)O)C(C)(C)[C@@H]5CC[C@]43C)[C@@H]12 [Compound 51r, (3β)-17-[2-[[2-[4-(2-Naphthalenylmethyl)piperazin-1-yl]ethyl]amino]ethyl]-28-norlup-20(29)-en-3-ol, 3-(1-Hydrogen 2,2-Dimethylbutanedioate)]",% CA-SP1 Accumulation 10 nM SP1 V7A,[1],34.1 (3) %
same,CC50,[2],> 1000 nM
same,CC50 at 7 days,[3],> 1000 nM
same,pIC50,"[4]; isolate 92RW009, PBMC",< 6.00
same,pIC50,"[4]; isolate 92UG001, PBMC",7.59
same,pIC50,"[4]; isolate 93BR020, PBMC",7.59
same,pIC50,"[4]; isolate 93BR029, PBMC",7.65
same,pIC50,"[4]; isolate 93IN101, PBMC",6.68
same,pIC50,"[4]; isolate 99UGA07412MI, PBMC",6.43
same,pIC50,"[4]; isolate BCF02, PBMC",7.21
same,pIC50,"[4]; isolate CMU02, PBMC",< 6.00
same,pIC50,"[4]; isolate JV1083, PBMC",< 6.00
same,% CA-SP1 Accumulation 10 nM NL4-3,[5],44.3%
"C=C(C)[C@@H]1CC[C@]2(CCNCCN3CCN(Cc4cccc(F)c4)CC3)CC[C@]3(C)[C@H](CC[C@@H]4[C@@]5(C)CC[C@H](OC(=O)CC(C)(C)C(=O)O)C(C)(C)[C@@H]5CC[C@]43C)[C@@H]12 [Compound 51m, (3β)-17-[2-[[2-[4-(3-Fluorophenylmethyl)piperazin-1-yl]ethyl]amino]ethyl]-28-norlup-20(29)-en-3-ol, 3-(1-Hydrogen 2,2-Dimethylbutanedioate)]",% CA-SP1 Accumulation 10 nM SP1 V7A,[1],40.3 (3) %
same,CC50,[2],> 1000 nM
same,CC50 at 7 days,[3],> 1000 nM
same,pIC50,"[4]; isolate 92RW009, PBMC",7.55
same,pIC50,"[4]; isolate 92UG001, PBMC",8.10
same,pIC50,"[4]; isolate 93BR020, PBMC",8.08
same,pIC50,"[4]; isolate 93BR029, PBMC",7.97
same,pIC50,"[4]; isolate 93IN101, PBMC",7.67
same,pIC50,"[4]; isolate 99UGA07412MI, PBMC",7.75
same,pIC50,"[4]; isolate BCF02, PBMC",7.78
same,pIC50,"[4]; isolate CMU02, PBMC",7.73
same,pIC50,"[4]; isolate JV1083, PBMC",< 6.00
same,% CA-SP1 Accumulation 10 nM NL4-3,[5],53.7%
"C=C(C)[C@@H]1CC[C@]2(CCNCCN3CCN(Cc4ccc(Cl)cc4)CC3)CC[C@]3(C)[C@H](CC[C@@H]4[C@@]5(C)CC[C@H](OC(=O)CC(C)(C)C(=O)O)C(C)(C)[C@@H]5CC[C@]43C)[C@@H]12 [Compound 51n, (3β)-17-[2-[[2-[4-(4-Chlorophenylmethyl)piperazin-1-yl]ethyl]amino]ethyl]-28-norlup-20(29)-en-3-ol, 3-(1-Hydrogen 2,2-Dimethylbutanedioate)]",% CA-SP1 Accumulation 10 nM SP1 V7A,[1],38.2 (3) %
same,CC50,[2],> 1000 nM
same,CC50 at 7 days,[3],> 1000 nM
same,pIC50,"[4]; isolate 92RW009, PBMC",7.59
same,pIC50,"[4]; isolate 92UG001, PBMC",8.28
same,pIC50,"[4]; isolate 93BR020, PBMC",7.89
same,pIC50,"[4]; isolate 93BR029, PBMC",7.74
same,pIC50,"[4]; isolate 93IN101, PBMC",7.63
same,pIC50,"[4]; isolate 99UGA07412MI, PBMC",7.50
same,pIC50,"[4]; isolate BCF02, PBMC",7.66
same,pIC50,"[4]; isolate CMU02, PBMC",7.76
same,pIC50,"[4]; isolate JV1083, PBMC",6.51
same,% CA-SP1 Accumulation 10 nM NL4-3,[5],46.9%
